Test results as given in paper PMC12036875, “Mitochondria-targeting natural product rhein conjugated with dichloroacetate as the dual inhibitor of glycolysis and oxidative phosphorylation to off energize cancer cells and induce ROS storm” (Theranostics, 2025).

Legend:
4T1 cells [1] = experiment: RNA sequencing and analysis (DEGs, GSEA); type: cell-based, Mouse; conditions: 6.25 μM, 12 h, RNA-seq
Protocol: To understand the effect of Rhein-DCA conjugate on the energy flow of glycolysis in cancer cells, we performed RNA sequencing analysis on 4T1 cell lines to analyze the genome. After various treatments for 12 h, all samples were clustered via principal component analysis (PCA) (Figure S12). […] Furthermore, the DEGs involved in glycolysis pathway of kyoto encyclopedia of genes and genomes (KEGG) databases were analyzed (Figure 2G). […] But as a pyruvate analogue, DCA led to the inactivation of PDK1 by binding to the pyruvate-binding pocket of PDK1 protein, together with down-regulation of PDK1 gene, thus leading more prominent restraint of glycolysis.
We next investigated whether the OXPHOS route would be further undermined by Rhein-DCA conjugate when the glycolysis was blocked. […] Thus, it was imperative to simultaneously halt glycolysis and OXPHOS to induce energy obstruction and apoptosis.
4T1 cells were seeded in 10 cm culture dishes and cultured until the confluency reached approximately 80%. The cells were treated with PBS, DCA, rhein, and Rhein-DCA conjugate (at a concentration of 6.25 μM) for 12 h. After that, the cells were collected and suspended in TRIzol Reagent for RNA sequencing. All samples were sent to Shanghai Majorbio Bio-pharm Biotechnology Co., Ltd. (Shanghai, P. R. China) for detection. Total RNA was extracted from 4T1 cells and was measured using the nanodrop-2000. The quality of RNA was evaluated by agarose gel electrophoresis and analyzed with Agilent5300. cDNA libraries were constructed according to the Illumina stranded mRNA prep, Ligation (USA) protocol. The DNA was further enriched by PCR amplification and purified by 2% Low Range Ultra Agarose. Clusters were generated by Bridge PCR on the cBot after being quantified by Qubit 4.0, and sequenced with NovaSeq X Plus platform (PE150). The differential expression analysis of various gene expressions was performed using DESeq2. The GO functional enrichment and KEGG pathway analysis were conducted on Goatools and Python scipy software.

4T1 cells [2] = experiment: Scratch (migration) assay; type: cell-based, Mouse; conditions: 6.25 μM, 24 h
Protocol: Cellular migration is the pivotal characteristic of cancer metastasis. […] Considering the inhibition of the glycolysis pathway resulting in a decrease of lactate, we studied the migration behavior of aggressive 4T1 cells in vitro. The results of scratch assay were shown in Figure S15, after being treated with different drugs for 24 h, the wound borders of 4T1 cells gradually got closer in control, rhein, DCA and R + D groups, and the migration rates reached approximately 40%.
4T1 cells were seeded in 6-well plate and incubated for 24 h. A straight scratch line across the cell monolayer was marked at the bottom of the plate with 200 μL pipette tip. Plate was washed twice with PBS to remove the detached cells. 6.25 μM of indicated drugs were added into each well, then the wound borders of cells were imaged at 0 h, 12 h and 24 h, respectively. The migration rate was calculated as follows: migration rate (%) = (initial scratch area - final scratch area) / initial scratch area × 100%, and the scratch area was processed with the Image J derivatives Fiji software.

4T1 cells [3] = experiment: Intracellular ATP detection; type: cell-based, Mouse; conditions: 6.25 μM, vs control
Protocol: Rhein-DCA conjugate achieved synergetic fatal energy depletion in tumor cells.
The intracellular ATP content was measured with PhosphoWorks™ Colorimetric ATP Assay Kit. Specifically, 4T1 cells and 293T cells were seeded in 12-well plates at a density of 2 × 10^5 cells per well and further cultured for 24 h at 37 °C in an atmosphere of 95% air and 5% CO2. For the control group, the culture medium was replaced with fresh medium. For the rhein, DCA, R + D, and Rhein-DCA groups, the medium was replaced with fresh medium containing the indicated drugs at a concentration of 6.25 μM. It should be noted that in the Rhein-DCA + CsA group, the cells were pretreated with CsA (2.5 μM) for 1 h at 37 °C before being cultured with Rhein-DCA. The cells were collected and suspended in 80 μL triton-X-100 (1% in PBS) to obtain cell lysates by twice freeze-thaw. Then the supernatant was collected after centrifugation at 9391 G for 10 min for subsequent analysis. Finally, 50 μL of supernatant was separately mixed evenly with 50 μL ATP working solution and the mixture was incubated for 30 min at room temperature. The absorbance at 570 nm was monitored with microplate reader.

4T1 tumor = experiment: In vivo antitumor effect, 4T1 tumor xenograft model; set-up: species or system Balb/c mice; conditions: for tumor H&E and TUNEL staining: 20 mg/kg oral; for tumor H&E and TUNEL staining / tumor growth compared with vehicle group: 24 days; for tumor growth compared with vehicle group: oral gavage daily, n = 5
Protocol: The antitumor efficiency of Rhein-DCA conjugate in vivo was explored using the female Balb/c mice with 4T1 tumor xenografts model. Briefly, 4T1-tumor bearing mice were randomly divided into vehicle, rhein, DCA, R + D and Rhein-DCA conjugate groups when the tumor became apparent (n = 5). Mice were treated daily with vehicle (2.85% anhydrous ethanol / 10% cremophor / 0.02% 0.1 M HCl / 87.15% saline) and rhein, DCA, R + D and Rhein-DCA conjugate (20 mg/kg) by oral gavage for 24 days. The body weight and tumor volume of mice were monitored and recorded every two days. […] The photograph and the weight information of all excised tumor xenografts further visually confirmed the antitumor effect of Rhein-DCA conjugate in vivo (Figure 6C-D). […] Due to suppression of tumor growth, the survival of mice treated with Rhein-DCA conjugate was improved in contrast to vehicle group (Figure S22).
Balb/c female mice (6 weeks) and Sprague-Dawley (SD) rats were purchased from Hubei provincial laboratory animal research center (Wuhan, P. R. China). All related animal experiments were approved by the Animal Welfare Committee of the Animal Experiment Center of Wuhan University. All Balb/c mice were shaved two days in advance and then subcutaneously injected with 4T1 cells (5 × 10^6 cells in 50 μL of PBS per mouse) into the back of the right leg. The 4T1 tumor bearing mice were randomly divided into five groups (5 mice per group) which containing vehicle, rhein, DCA, R + D and Rhein-DCA groups when the tumor volumes reached about 100~120 mm^3. The tumor size was calculated with the following formula:
Subsequently, mice were orally treated with vehicle (2.85% anhydrous ethanol / 10% cremophor / 0.02% HCl (0.1 M) / 87.15% saline) and rhein, DCA, R + D and Rhein-DCA (20 mg/kg, suspended in 2.85% anhydrous ethanol / 10% cremophor / 0.02% HCl (0.1 M) / 87.15% saline) every day. The body weight and tumor size changes of each mouse were measured and recorded every two days.
After 24 days, the mice were euthanized, and then tumors were excised to photographing and weighting. The tumors in each group were performed with TUNEL (green fluorescence) and H&E assay. In addition, immunohistochemical staining was conducted on the tumor tissue to determine the pPDHA1-Ser^293 protein level. Besides, immunofluorescence staining was used to detect the expression of HMGB1 protein in the tumor.

SMILES | PDK1 gene expression (4T1 cells [1]) | migration rate (4T1 cells [2]) | intracellular ATP amount (4T1 cells [3]) | tumor H&E and TUNEL staining (4T1 tumor) | tumor growth compared with vehicle group (4T1 tumor; 20 mg/kg) | survival of mice in contrast to vehicle group (4T1 tumor; 20 mg/kg, oral)
O=C(O)c1cc(O)c2c(c1)C(=O)c1cccc(O)c1C2=O [Rhein, 4,5-dihydroxyanthraquinone-2-carboxylic acid] | down-regulation | approximately 40% | decrease | mild apoptosis and necrosis | slight inhibition | –
O=C(OCCOC(=O)C(Cl)Cl)c1cc(O)c2c(c1)C(=O)c1cccc(O)c1C2=O [Rhein-DCA] | significant down-regulation | 8% | significant decrease | more extensive tissue necrosis and considerable cell apoptosis | significant inhibition | improved
O=C(O)C(Cl)Cl [DCA, Dichloroacetate] | down-regulated | approximately 40% | slight increase | mild apoptosis and necrosis | slight inhibition | –
